Assay results published in patent US9556179B2 (BRISTOL-MYERS SQUIBB COMPANY, priority 2012, dated 2017).

Experiments:
CK1ε = CK1ε (Homo sapiens (Human), UniProt P49674); assay: CK1ε kinase assay (Caliper LABCHIP electrophoretic separation of fluoresceinated peptide substrate and product); assay type: biochemical; conditions: 200 pM enzyme, 50 μM ATP, 22 hours at room temperature
Method in brief: (§1)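 Each reaction was incubated 22 hours at room temperature and terminated with EDTA. Read-out was microfluidic electrophoretic separation of fluoresceinated substrate and phospho-product.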

CK1δ = CK1δ (Homo sapiens (Human), UniProt P48730); assay: CK1δ kinase assay (Caliper LABCHIP electrophoretic separation of fluoresceinated peptide substrate and product); assay type: biochemical; conditions: 200 pM enzyme, 50 μM ATP, 22 hours at room temperature
Method in brief: as §1

Chain of CK1δ (P48730 whole entry): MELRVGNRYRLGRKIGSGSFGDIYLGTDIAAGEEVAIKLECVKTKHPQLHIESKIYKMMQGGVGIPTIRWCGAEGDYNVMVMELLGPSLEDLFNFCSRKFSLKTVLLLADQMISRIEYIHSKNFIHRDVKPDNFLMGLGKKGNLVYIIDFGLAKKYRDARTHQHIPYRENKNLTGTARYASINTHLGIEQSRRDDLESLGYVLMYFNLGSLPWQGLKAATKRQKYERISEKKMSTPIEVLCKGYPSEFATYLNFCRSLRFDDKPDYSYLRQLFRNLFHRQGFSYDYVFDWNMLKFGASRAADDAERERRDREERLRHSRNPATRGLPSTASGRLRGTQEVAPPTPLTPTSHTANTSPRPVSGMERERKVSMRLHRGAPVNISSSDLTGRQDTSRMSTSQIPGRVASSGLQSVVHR
Chain of CK1ε (P49674 whole entry): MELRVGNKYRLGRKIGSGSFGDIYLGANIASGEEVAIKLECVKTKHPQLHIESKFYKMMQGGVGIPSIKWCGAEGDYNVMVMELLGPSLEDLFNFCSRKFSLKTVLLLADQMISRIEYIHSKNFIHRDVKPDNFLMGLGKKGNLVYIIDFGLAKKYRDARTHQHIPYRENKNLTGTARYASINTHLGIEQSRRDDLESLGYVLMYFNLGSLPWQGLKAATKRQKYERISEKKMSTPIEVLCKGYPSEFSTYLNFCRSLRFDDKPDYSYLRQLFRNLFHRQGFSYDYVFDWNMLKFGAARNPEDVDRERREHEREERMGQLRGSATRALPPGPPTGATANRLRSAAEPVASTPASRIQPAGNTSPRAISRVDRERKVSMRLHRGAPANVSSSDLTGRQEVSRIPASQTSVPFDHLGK

Which IC50 (CK1ε) does the source give for `O=C(Nc1cn2nc(-c3c(-c4cccc(F)c4)ncn3CC(F)F)ccc2n1)c1ccnc(F)c1` [Compound 245, N-(6-(1-(2,2-difluoroethyl)-4-(3-fluorophenyl)-1H-imidazol-5-yl)imidazo[1,2-b]pyridazin-2-yl)-2-fluoroisonicotinamide] here?
Its IC50 is 7.43 nM.

And the IC50 (CK1δ)?
The IC50 was 0.899 nM.

With `O=C(Nc1cn2nc(-c3c(-c4ccc(F)cc4)ncn3C3CCN(CCCF)CC3)ccc2n1)c1ccnc(F)c1` [Compound 33, 2-fluoro-N-(6-(4-(4-fluorophenyl)-1-(1-(3-fluoropropyl)piperidin-4-yl)-1H-imidazol-5-yl)imidazo[1,2-b]pyridazin-2-yl)isonicotinamide] as the compound, how does the IC50 (CK1ε) read?
The IC50 was 1.9 nM.

What about the IC50 (CK1δ) of the same compound?
The IC50 was 0.378 nM.

For `O=C(Nc1cn2nc(-c3c(-c4ccc(F)cc4)nc(C4CC4)n3C3CCN(S(=O)(=O)C4CC4)CC3)ccc2n1)c1ccnc(F)c1` [Compound 124, N-(6-(2-cyclopropyl-1-(1-(cyclopropylsulfonyl)piperidin-4-yl)-4-(4-fluorophenyl)-1H-imidazol-5-yl)imidazo[1,2-b]pyridazin-2-yl)-2-fluoroisonicotinamide], which IC50 (CK1ε) is on record?
Its IC50 is 27.1 nM.

What about the IC50 (CK1δ) of the same compound?
The IC50 was 3.72 nM.

For `Cc1nc(-c2ccc(F)cc2)c(-c2ccc3nc(NC(=O)c4ccnc(F)c4)cn3n2)n1CC(F)F` [Compound 284, N-(6-(1-(2,2-Difluoroethyl)-4-(4-fluorophenyl)-2-methyl-1H-imidazol-5-yl)imidazo[1,2b]-pyridazin-2-yl)-2-fluoroisonicotinamide], which IC50 (CK1ε) is on record?
The IC50 was 2.02 nM.

And the IC50 (CK1δ)?
Its IC50 is 0.384 nM.

Which results are given for `O=C(Nc1cn2nc(-c3c(-c4ccc(F)cc4)nc4ccccn34)ccc2n1)c1cccc(-c2nccs2)c1` [Compound 211, N-(6-(2-(4-fluorophenyl)imidazo[1,2-a]pyridin-3-yl)imidazo[1,2-b]pyridazin-2-yl)-3-(thiazol-2-yl)benzamide]?
IC50 (CK1ε): 6.77 nM; IC50 (CK1δ): 1.96 nM

How did the IC50 (CK1ε) turn out when `CC(C)(C)C(=O)Nc1cn2nc(-c3c(-c4ccc(F)cc4)ncn3Cc3ccoc3)ccc2n1` [Compound 279, N-(6-(4-(4-fluorophenyl)-1-(furan-3-ylmethyl)-1H-imidazol-5-yl)imidazo[1,2-b]pyridazin-2-yl)pivalamide] was run?
Its IC50 is 0.887 nM.

What about the IC50 (CK1δ) of the same compound?
The IC50 was 0.169 nM.

With `O=C(Nc1cn2nc(-c3c(-c4ccc(F)cc4)nc4ccccn34)ccc2n1)c1cncc(Cl)c1` [Compound 201, 5-chloro-N-(6-(2-(4-fluorophenyl)imidazo[1,2-a]pyridin-3-yl)imidazo[1,2-b]pyridazin-2-yl) nicotinamide] as the compound, how does the IC50 (CK1ε) read?
The IC50 was 3.04 nM.

What about the IC50 (CK1δ) of the same compound?
The IC50 was 1.21 nM.

For `Cc1nc(-c2ccc(F)cc2)c(-c2ccc3nc(NC(=O)c4ccc5ncccc5c4)cn3n2)n1C` [Compound 336, N-(6-(4-(4-fluorophenyl)-1,2-dimethyl-1H-imidazol-5-yl)imidazo[1,2-b]pyridazin-2-yl)-6-quinolinecarboxamide], which IC50 (CK1ε) is on record?
The IC50 was 2.2 nM.

And the IC50 (CK1δ)?
Its IC50 is 0.507 nM.

What does the source list for `COCC(=O)N1CCC(n2cnc(-c3ccc(F)cc3)c2-c2ccc3nc(NC(=O)c4ccnc(F)c4)cn3n2)CC1` [Compound 47, 2-fluoro-N-(6-(4-(4-fluorophenyl)-1-(1-(2-methoxyacetyl)piperidin-4-yl)-1H-imidazol-5-yl)imidazo[1,2-b]pyridazin-2-yl)isonicotinamide]?
IC50 (CK1ε): 1.1 nM; IC50 (CK1δ): 0.225 nM

What does the source list for `O=C(Nc1cn2nc(-c3c(-c4ccc(F)cc4)ncn3C3CCN(C(=O)OC4COC4)CC3)ccc2n1)c1ccnc(F)c1` [Compound 80, oxetan-3-yl 4-(5-(2-(2-fluoroisonicotinamido)imidazo[1,2-b]pyridazin-6-yl)-4-(4-fluorophenyl)-1H-imidazol-1-yl)piperidine-1-carboxylate]?
IC50 (CK1ε): 0.809 nM; IC50 (CK1δ): 0.171 nM

Which IC50 (CK1ε) does the source give for `N#CC1(C(=O)N2CCn3c(nc(-c4ccc(F)cc4)c3-c3ccc4nc(NC(=O)c5ccnc(F)c5)cn4n3)C2)CC1` [Compound 471, N-(6-(7-(1-Cyanocyclopropanecarbonyl)-2-(4-fluorophenyl)-5,6,7,8-tetrahydroimidazo[1,2-a]pyrazin-3-yl)imidazo[1,2-b]pyridazin-2-yl)-2-fluoroisonicotinamide] here?
The IC50 was 3.5 nM.

What about the IC50 (CK1δ) of the same compound?
The IC50 was 0.5 nM.

`Cc1nc(-c2ccc(F)cc2)c(-c2ccc3nc(NC(=O)c4ccc(-n5cccn5)nc4)cn3n2)n1C` [Compound 314, N-(6-(4-(4-fluorophenyl)-1,2-dimethyl-1H-imidazol-5-yl)imidazo[1,2-b]pyridazin-2-yl)-6-(1H-pyrazol-1-yl) nicotinamide] was tested. Which IC50 (CK1ε) did it give?
Its IC50 is 3.1 nM.

What about the IC50 (CK1δ) of the same compound?
The IC50 was 0.479 nM.

How did the IC50 (CK1ε) turn out when `O=C(Nc1cn2nc(-c3c(-c4ccc(F)cc4)ncn3CC(=O)N3CCCC3)ccc2n1)c1ccnc(F)c1` [Compound 250, 2-fluoro-N-(6-(4-(4-fluorophenyl)-1-(2-oxo-2-(1-pyrrolidinyl)ethyl)-1H-imidazol-5-yl)imidazo[1,2-b]pyridazin-2-yl)isonicotinamide] was run?
The IC50 was 8.38 nM.

And the IC50 (CK1δ)?
Its IC50 is 0.292 nM.

`O=C(Nc1cn2nc(-c3c(-c4ccc(F)cc4)ncn3C3CCN(C(=O)OCC4CC4(F)F)CC3)ccc2n1)c1ccnc(F)c1` (stereo not drawn) [Compound 82, (2,2-difluorocyclopropyl)methyl 4-(5-(2-(2-fluoroisonicotinamido)imidazo[1,2-b]pyridazin-6-yl)-4-(4-fluorophenyl)-1H-imidazol-1-yl)piperidine-1-carboxylate] was tested. Which IC50 (CK1ε) did it give?
Its IC50 is 1.59 nM.

And the IC50 (CK1δ)?
The IC50 was 0.247 nM.

Which IC50 (CK1ε) does the source give for `Cc1nc(-c2ccc(F)cc2)c(-c2ccc3nc(NC(=O)c4cncs4)cn3n2)n1C` [Compound 396, N-(6-(4-(4-fluorophenyl)-1,2-dimethyl-1H-imidazol-5-yl)imidazo[1,2-b]pyridazin-2-yl)thiazole-5-carboxamide] here?
Its IC50 is 4.41 nM.

And the IC50 (CK1δ)?
The IC50 was 3.88 nM.

For `N#Cc1cccc(-c2cccc(C(=O)Nc3cn4nc(-c5c(-c6ccc(F)cc6)nc6ccccn56)ccc4n3)c2)c1` [Compound 207, 3′-cyano-N-(6-(2-(4-fluorophenyl)imidazo[1,2-a]pyridin-3-yl]imidazo[1,2-b]pyridazin-2-yl)-[1,1′-biphenyl]-3-carboxamide], which IC50 (CK1ε) is on record?
The IC50 was 18.1 nM.

And the IC50 (CK1δ)?
Its IC50 is 2.35 nM.

For `O=C(Nc1cn2nc(-c3c(-c4ccc(F)cc4)nc4n3CCN(C(=O)C3CC3)C4)ccc2n1)c1ccnc(F)c1` [Compound 469, N-(6-(7-(Cyclopropanecarbonyl)-2-(4-fluorophenyl)-5,6,7,8-tetrahydroimidazo[1,2-a]pyrazin-3-yl)imidazo[1,2-b]pyridazin-2-yl)-2-fluoroisonicotinamide], which IC50 (CK1ε) is on record?
Its IC50 is 12.9 nM.

And the IC50 (CK1δ)?
The IC50 was 2.3 nM.

`Cc1nc(-c2ccc(F)cc2)c(-c2ccc3nc(NC(=O)c4ccc5cnccc5c4)cn3n2)n1C` [Compound 339, N-(6-(4-(4-fluorophenyl)-1,2-dimethyl-1H-imidazol-5-yl)imidazo[1,2-b]pyridazin-2-yl)isoquinoline-6-carboxamide] was tested. Which IC50 (CK1ε) did it give?
The IC50 was 1.61 nM.

And the IC50 (CK1δ)?
The IC50 was 0.187 nM.

For `Cc1nc(-c2ccc(F)cc2)c(-c2ccc3nc(NC(=O)c4ccc5cccnc5c4)cn3n2)n1C` [Compound 337, N-(6-(4-(4-fluorophenyl)-1,2-dimethyl-1H-imidazol-5-yl)imidazo[1,2-b]pyridazin-2-yl)-7-quinolinecarboxamide], which IC50 (CK1ε) is on record?
Its IC50 is 2.58 nM.

And the IC50 (CK1δ)?
Its IC50 is 0.271 nM.

How did the IC50 (CK1ε) turn out when `Cc1nc(-c2ccc(F)cc2)c(-c2ccc3nc(NC(=O)c4ccnnc4)cn3n2)n1C` [Compound 391, N-(6-(4-(4-fluorophenyl)-1,2-dimethyl-1H-imidazol-5-yl)imidazo[1,2-b]pyridazin-2-yl)pyridazine-4-carboxamide] was run?
Its IC50 is 10.5 nM.

And the IC50 (CK1δ)?
The IC50 was 4.45 nM.

How did the IC50 (CK1ε) turn out when `Cc1nc(-c2ccc(F)cc2)c(-c2ccc3nc(NC(=O)c4cnn(C)c4)cn3n2)n1C` [Compound 359, N-(6-(4-(4-fluorophenyl)-1,2-dimethyl-1H-imidazol-5-yl)imidazo[1,2-b]pyridazin-2-yl)-1-methyl-1H-pyrazole-4-carboxamide] was run?
Its IC50 is 3.17 nM.

And the IC50 (CK1δ)?
The IC50 was 0.599 nM.

For `Cc1oncc1C(=O)Nc1cn2nc(-c3c(-c4ccc(F)cc4)nc(C)n3C)ccc2n1` [Compound 365, N-(6-(4-(4-fluorophenyl)-1,2-dimethyl-1H-imidazol-5-yl)imidazo[1,2-b]pyridazin-2-yl)-5-methyl-4-isoxazole-carboxamide], which IC50 (CK1ε) is on record?
Its IC50 is 1110 nM.

What about the IC50 (CK1δ) of the same compound?
Its IC50 is 103 nM.

`CC(C)(C)C1CCC(n2cnc(-c3ccc(F)cc3)c2-c2ccc3nc(NC(=O)c4ccnc(F)c4)cn3n2)CC1` (stereo not drawn) [Compound 256, N-(6-(1-(4-tert-butylcyclohexyl)-4-(4-fluorophenyl)-1H-imidazol-5-yl)imidazo[1,2-b]pyridazin-2-yl)-2-fluoroisonicotinamide] was tested. Which IC50 (CK1ε) did it give?
Its IC50 is 230 nM.

And the IC50 (CK1δ)?
Its IC50 is 10.2 nM.

Which results are given for `O=C(Nc1cn2nc(-c3c(-c4ccc(F)cc4)nc4n3CCN(C(=O)C3CC3(F)F)C4)ccc2n1)c1ccnc(F)c1` (stereo not drawn) [Compound 466, N-(6-(7-(2,2-Difluorocyclopropanecarbonyl)-2-(4-fluorophenyl)-5,6,7,8-tetrahydroimidazo[1,2-a]pyrazin-3-yl)imidazo[1,2-b]pyridazin-2-yl)-2-fluoroisonicotinamide]?
IC50 (CK1ε): 1.5 nM; IC50 (CK1δ): 0.2 nM

With `O=C(Nc1cn2nc(-c3c(-c4ccc(F)cc4)nc(C4CC4)n3C3CCN(CCC(F)(F)F)CC3)ccc2n1)c1ccnc(F)c1` [Compound 130, N-(6-(2-cyclopropyl-4-(4-fluorophenyl)-1-(1-(3,3,3-trifluoropropyl)piperidin-4-yl)-1H-imidazol-5-yl)imidazo [1,2-b]pyridazin-2-yl)-2-fluoroisonicotinamide] as the compound, how does the IC50 (CK1ε) read?
The IC50 was 53.3 nM.

And the IC50 (CK1δ)?
Its IC50 is 3.32 nM.

`Cc1nc(-c2ccc(F)cc2)c(-c2ccc3nc(NC(=O)c4cncc(-c5ccc(F)nc5)c4)cn3n2)n1C` [Compound 406, 6′-Fluoro-N-(6-(4-(4-fluorophenyl)-1,2-dimethyl-1H-imidazol-5-yl)imidazo[1,2-b]pyridazin-2-yl)-[3,3′-bipyridine]-5-carboxamide] was tested. Which IC50 (CK1ε) did it give?
The IC50 was 2.94 nM.

What about the IC50 (CK1δ) of the same compound?
The IC50 was 0.349 nM.

`O=C(Nc1cn2nc(-c3c(-c4ccc(F)cc4)nc4ccccn34)ccc2n1)c1ccnc(C(F)(F)F)c1` [Compound 198, N-(6-(2-(4-fluorophenyl)imidazo[1,2-a]pyridin-3-yl)imidazo[1,2-b]pyridazin-2-yl)-2-(trifluoromethyl) isonicotinamide] was tested. Which IC50 (CK1ε) did it give?
The IC50 was 34.6 nM.

And the IC50 (CK1δ)?
The IC50 was 3.88 nM.
